# In PMC4917279 (Journal of Medicinal Chemistry, 2016):
# Test system: KYSE-150 esophageal xenograft
# Format: in vivo
# Settings: (S)-4 500 mg/kg po qd; doxorubicin 10 mg/kg iv once at day 4
smiles,measurement,value
"COc1cccc2c1C(=O)c1c(O)c3c(c(O)c1C2=O)C[C@@](O)(C(=O)CO)C[C@@H]3O[C@H]1C[C@H](N)[C@H](O)[C@H](C)O1 [Doxorubicin, doxorubicin]",Antitumor efficacy relative to vehicle control,no significant antitumor efficacy
